ChEMBL document CHEMBL1201862, “PubChem BioAssay data set” (2004)
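Values below derive from 48-hour exposures of cells grown in 96-well plates, with endpoints linearly interpolated between the two concentrations bracketing the appropriate inhibition level. GI50 is the concentration that inhibits growth by half.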 Active and inactive are the calls of the source. Cut-off read from the data, not from the text of the source: active = GI50 up to about 1.1 µM and inactive = higher.

Assays:
Assay in all cases: growth of human tumour cells (NCI), 48 h
MOLT-4 = tested on: MOLT-4
UACC-257 = tested on: UACC-257
SK-MEL-2 = tested on: SK-MEL-2
MDA-N = tested on: MDA-N
M14 = tested on: M14
LOX IMVI = tested on: LOX IMVI
SF-268 = tested on: SF-268
MCF7 = tested on: MCF7
NCI-H226 = tested on: NCI-H226
DU-145 = tested on: DU-145
PC-3 = tested on: PC-3
SF-295 = tested on: SF-295
T47D = tested on: T47D
NCI-H460 = tested on: NCI-H460
HCT-116 = tested on: HCT-116
TK-10 = tested on: TK-10
SR = tested on: SR
SK-MEL-28 = tested on: SK-MEL-28
NCI-H522 = tested on: NCI-H522
HL-60 = tested on: HL-60

SMILES	GI50 (MOLT-4)	GI50 (UACC-257)	GI50 (SK-MEL-2)	GI50 (MDA-N)	GI50 (M14)	GI50 (LOX IMVI)	GI50 (SF-268)	GI50 (MCF7)	GI50 (NCI-H226)	GI50 (DU-145)	GI50 (PC-3)	GI50 (SF-295)	GI50 (T47D)	GI50 (NCI-H460)	GI50 (HCT-116)	GI50 (TK-10)	GI50 (SR)	GI50 (SK-MEL-28)	GI50 (NCI-H522)	GI50 (HL-60)
CCCC(c1cc(C(C)(C)C)c(O)cc1C)c1cc(C(C)(C)C)c(O)cc1C	2.16 µM (inactive)	2.31 µM (inactive)	2.6 µM (inactive)	1.87 µM (inactive)	2.09 µM (inactive)	1.87 µM (inactive)	4.4 µM (inactive)	2.06 µM (inactive)	2.3 µM (inactive)	4.05 µM (inactive)	3.29 µM (inactive)	2.4 µM (inactive)	2.56 µM (inactive)	1.95 µM (inactive)	1.91 µM (inactive)	3.2 µM (inactive)	2.26 µM (inactive)	3.48 µM (inactive)	2.33 µM (inactive)	2.27 µM (inactive)
O=C1C(Cl)=C(N2CCN(c3ccccn3)CC2)C(=O)c2ncccc21	1.38 µM (inactive)	1.7 µM (inactive)	1.87 µM (inactive)	1.76 µM (inactive)	1.6 µM (inactive)	1.61 µM (inactive)	2.74 µM (inactive)	1.67 µM (inactive)	5.68 µM (inactive)	11.8 µM (inactive)	2.8 µM (inactive)	5.69 µM (inactive)	1.81 µM (inactive)	3.05 µM (inactive)	1.74 µM (inactive)	3.97 µM (inactive)	0.757 µM (active)	2.24 µM (inactive)	1.67 µM (inactive)	0.668 µM (active)
C[C@H](CCc1nc(C#N)c(N)o1)[C@H]1CC[C@H]2[C@@H]3[C@@H](O)CC4C[C@@H](O)CC[C@]4(C)[C@H]3C[C@@H](O)[C@]12C (stereo not given in full)	15 µM (inactive)	19.7 µM (inactive)	19.9 µM (inactive)	25.9 µM (inactive)	29 µM (inactive)	12.1 µM (inactive)	20.2 µM (inactive)	33.1 µM (inactive)	21.2 µM (inactive)	28.1 µM (inactive)	9.95 µM (inactive)	22.8 µM (inactive)	27.5 µM (inactive)	21.9 µM (inactive)	21.4 µM (inactive)	24.2 µM (inactive)	17 µM (inactive)	25.6 µM (inactive)	4.03 µM (inactive)	3.62 µM (inactive)
O=C(c1ccccc1)N1N=C(C(F)(F)F)CC1(O)C(F)(F)F (stereo not given)	> 100 µM (inactive)	> 100 µM (inactive)	> 100 µM (inactive)	> 100 µM (inactive)	> 100 µM (inactive)	> 100 µM (inactive)	> 100 µM (inactive)	> 100 µM (inactive)	> 100 µM (inactive)	> 100 µM (inactive)	> 100 µM (inactive)	> 100 µM (inactive)	> 100 µM (inactive)	> 100 µM (inactive)	> 100 µM (inactive)	> 100 µM (inactive)	> 100 µM (inactive)	> 100 µM (inactive)	> 100 µM (inactive)	> 100 µM (inactive)
COc1ccc2c3c1OC1C(=O)C=CC4(O)C(C2)NCC[C@@]314 (stereo not given in full)	1.28 µM (inactive)	1.77 µM (inactive)	2.4 µM (inactive)	1.26 µM (inactive)	2.3 µM (inactive)	1.91 µM (inactive)	2.07 µM (inactive)	1.98 µM (inactive)	8.75 µM (inactive)	3.24 µM (inactive)	3.3 µM (inactive)	3.69 µM (inactive)	0.968 µM (active)	3.37 µM (inactive)	1.73 µM (inactive)	1.68 µM (inactive)	1.76 µM (inactive)	2.92 µM (inactive)	0.556 µM (active)	1.8 µM (inactive)
C/C(=N\NC(=S)NC(C)C)c1nc2cccnc2[nH]1	9.95 µM (inactive)	34.6 µM (inactive)	18.7 µM (inactive)	> 100 µM (inactive)	57.9 µM (inactive)	30.2 µM (inactive)	14.8 µM (inactive)	21.9 µM (inactive)	9.25 µM (inactive)	51.1 µM (inactive)	27.9 µM (inactive)	12 µM (inactive)	0.33 µM (active)	14 µM (inactive)	11.3 µM (inactive)	21.3 µM (inactive)	11.7 µM (inactive)	> 100 µM (inactive)	13.8 µM (inactive)	8.93 µM (inactive)
COC(=O)c1c(O)ccc2c1c1cc3ccccc3cc1n2Cc1cc(OC)cc(OC)c1	21.7 µM (inactive)	9.73 µM (inactive)	1.22 µM (inactive)	0.43 µM (active)	2.25 µM (inactive)	9.31 µM (inactive)	2.75 µM (inactive)	1.73 µM (inactive)	14.9 µM (inactive)	2.53 µM (inactive)	2.46 µM (inactive)	1.11 µM (active)	3.06 µM (inactive)	2.57 µM (inactive)	1.13 µM (inactive)	> 23.2 µM (inactive)	1.04 µM (active)	1.66 µM (inactive)	0.194 µM (active)	2.92 µM (inactive)
COc1cc(-c2oc(/C=N/c3ccccc3)c([N+](=O)[O-])c2-c2ccc(O)c(OC)c2)ccc1O	12.2 µM (inactive)	27 µM (inactive)	32.9 µM (inactive)	31 µM (inactive)	32.1 µM (inactive)	9.57 µM (inactive)	19.7 µM (inactive)	23.9 µM (inactive)	26.9 µM (inactive)	20.1 µM (inactive)	18.7 µM (inactive)	31.6 µM (inactive)	38.9 µM (inactive)	16.1 µM (inactive)	18.4 µM (inactive)	18 µM (inactive)	2.86 µM (inactive)	19.5 µM (inactive)	12.5 µM (inactive)	0.412 µM (active)
Cc1cc(=O)oc2cc(OC(=O)N(CCCl)CCCl)ccc12	82.6 µM (inactive)	> 100 µM (inactive)	> 100 µM (inactive)	> 100 µM (inactive)	> 100 µM (inactive)	59.8 µM (inactive)	> 100 µM (inactive)	> 100 µM (inactive)	> 100 µM (inactive)	> 100 µM (inactive)	46.8 µM (inactive)	> 100 µM (inactive)	62.4 µM (inactive)	> 100 µM (inactive)	> 100 µM (inactive)	> 100 µM (inactive)	63.2 µM (inactive)	> 100 µM (inactive)	79.1 µM (inactive)	> 100 µM (inactive)
CCNC(=S)N/N=C(\C)c1cccc(C)n1	0.631 µM (active)	5.2 µM (inactive)	42.8 µM (inactive)	28.2 µM (inactive)	11 µM (inactive)	18.6 µM (inactive)	2.4 µM (inactive)	3.32 µM (inactive)	11 µM (inactive)	14.9 µM (inactive)	5.87 µM (inactive)	26.9 µM (inactive)	0.643 µM (active)	6.01 µM (inactive)	7.18 µM (inactive)	> 100 µM (inactive)	> 100 µM (inactive)	22.3 µM (inactive)	0.897 µM (active)	3.47 µM (inactive)
Cc1ccc(C)c(COCCOCn2cc(Br)c(N)nc2=O)c1	> 100 µM (inactive)	> 100 µM (inactive)	> 100 µM (inactive)	> 100 µM (inactive)	> 100 µM (inactive)	> 100 µM (inactive)	> 100 µM (inactive)	> 100 µM (inactive)	> 100 µM (inactive)	> 100 µM (inactive)	> 100 µM (inactive)	> 100 µM (inactive)	> 100 µM (inactive)	> 100 µM (inactive)	> 100 µM (inactive)	> 100 µM (inactive)	> 100 µM (inactive)	> 100 µM (inactive)	> 100 µM (inactive)	14 µM (inactive)
CC(O)C1(CNc2cc(Cl)nc(N)n2)CC(CCc2ccccc2)C1 (stereo not given)	11.6 µM (inactive)	4.56 µM (inactive)	17.2 µM (inactive)	12.9 µM (inactive)	17.9 µM (inactive)	3.92 µM (inactive)	14.9 µM (inactive)	0.108 µM (active)	14.7 µM (inactive)	16.4 µM (inactive)	11.6 µM (inactive)	14.4 µM (inactive)	3.42 µM (inactive)	14 µM (inactive)	8.28 µM (inactive)	16.1 µM (inactive)	6.15 µM (inactive)	14.3 µM (inactive)	8.41 µM (inactive)	14.1 µM (inactive)
O=C1/C(=C/c2ccc(O)c(O)c2)CC/C1=C\c1ccc(O)c(O)c1	3.23 µM (inactive)	20.8 µM (inactive)	22.7 µM (inactive)	4.61 µM (inactive)	3.03 µM (inactive)	6.67 µM (inactive)	5.52 µM (inactive)	6.15 µM (inactive)	7.46 µM (inactive)	9.46 µM (inactive)	11.8 µM (inactive)	> 44.5 µM (inactive)	4.66 µM (inactive)	9.66 µM (inactive)	3.58 µM (inactive)	> 25.9 µM (inactive)	2.3 µM (inactive)	14.2 µM (inactive)	2.01 µM (inactive)	3.39 µM (inactive)
O=C(O)CCc1nc2ccccc2[nH]1 [PROCODAZOLE]	> 100 µM (inactive)	> 100 µM (inactive)	> 100 µM (inactive)	> 100 µM (inactive)	> 100 µM (inactive)	> 100 µM (inactive)	> 100 µM (inactive)	> 100 µM (inactive)	> 100 µM (inactive)	> 100 µM (inactive)	> 100 µM (inactive)	> 100 µM (inactive)	> 100 µM (inactive)	> 100 µM (inactive)	> 100 µM (inactive)	> 100 µM (inactive)	> 100 µM (inactive)	> 100 µM (inactive)	> 100 µM (inactive)	> 100 µM (inactive)
